Results reported in patent publication US20180171321A1, “PLATFORM FOR A NON-NATURAL AMINO ACID INCORPORATION INTO PROTEINS” (THE UNIVERSITY OF QUEENSLAND, priority 2015, published 2018).
“Also recorded” adds a separate entry of the source.

Experiments:
[1] = test system: amber codon (UAG) in GFP templates; assay: Amber codon suppression in E. coli cell-free translation system (GFP fluorescence); format: biochemical
Excerpt: FIG. 22. Comparative analysis of amber codon suppression efficiencies in E. coli cell-free translation system with different nnAA/o-tRNA/aaRS combinations. A: The structure of nnAAs used here. B-D: Suppression Amber suppression of A_151X template. The suppression efficiency is defined as a ratio compared to the fluorescence of percentage of wild type eGFP fluorescence wild type eGFP without stop codon inside its ORF. B: Incorporation of four nnAAs by three PylRS variants. The final concentrations of PylTcua, PylRS variants and nnAAs were 20 μM, 20 μM and 1 mM, respectively. C: AzF incorporation by four MjY tRNA variants. MjY1, MjY2, MjY3 and MjY4 are corresponding to the tRNAs pAzPhe1, pAzPhe2, pAzPhe3 and tRNAopt CUA in original publication^35,37. The final concentrations of MjYtRNA variants, AzFRS and AzF are 10 μM, 10 μM and 1 mM, respectively. D: Effect of o-tRNA and o-aaRS concentrations on amber codon suppression efficiency of MjY2/AzFRS/AzF and PylT/PylRSAF/PrK. E: The effect of codon contexts on nnAA incorporation efficiency in two orthogonal systems. The concentration of MjY2 and AzFRS were 10 μM for both while PylT and PylRS were used at 20 and 30 μM, respectively. Four templates, named A_1X, A_151X, B_1X and B_151X, were used in the analysis (sequences are shown in SI). A and B denote the template backbones with different codon biases where codon vocabulary in A is optimized for eGFP while in B it is simplified mostly utilizing the unique codon to decode each amino acid type. The numeric indicates the position of amber codon in ORF sequence. The relative activity in individual reactions is given as a percent of fluorescent intensity provided while obtained when using EctRNATyr(cua) as a suppressor.
(§1) The tRNA-depleted lysate is prepared as described by ethanolamine-sepharose affinity chromatography^24. DNA templates with two GFP ORFs: one of optimized codon composition for eGFP (Template A) and the other of simplified codon composition for sGFP (Template B), were used. Mutations to amber or AGG-codon were introduced either by synthesizing the whole gene fragments as gBlocks by IDT to change all the 6 Arg codons to AGG simultaneously or using PCR with the proper primers to introduce mutations with less than 3 nucleotides at the same position. The obtained fragments were cloned into the pLTE or pOPINE-based plasmids following the standard Gibson assembly cloning procedure (NEB). The correct plasmids with desired mutations were purified by Midiprep Kit (Qiagen) to ensure good quality for cell free protein translation. The sequence information of all the open reading frames used here is provided in SI.
The cell-free translation reactions for GFP production were performed following the standard protocol^60 with the optimized Mg^2+ at 10 mM concentration. 0.35 volume of depleted lysate, same as that for the standard S30 lysate, was used in the reaction. […] GFP production was monitored on a fluorescence plate reader (Synergy) at 30° C. for 3-5 h at 485 nm excitation and 528 nm emission wavelengths.
We tested the recombinant forms of PylRS variants for their ability to support in vitro synthesis of eGFP synthesis from the template containing amber-codon at 151 position (A_151X, SI) in the presence of an evolved o-tRNA harboring U25C mutation in its anticodon stem (PylT)^14 and nnAA-substrates BCN, TCO or TCO*. Another nnAA PrK (FIG. 22A) for also used for azide-coupling known to be accommodated and charged to tRNA by wt MbPylRS30 and […], MmPylRS5, was also tested. […] Neither of these large aliphatic alkynes or alkenes could be incorporated by either of three PylRS mutants with efficiency above 5%. […] The latter confirms the promiscuity of engineered PylRS variant to various substrates reported in a comprehensive study^35

AGG codon in GFP ORFs = assay: AGG reassignment to AzF in cell-free system depleted of tRNA species decoding AGG; format: biochemical, E. coli; conditions: all four templates
Protocol: FIG. 23. AGG reassignment to AzF in the context of four GFP ORFs. The GFP protein was expressed in cell-free system depleted of tRNA species decoding AGG codon with and without addition of MjY suppression system (MjY2/AzFRS). The final concentrations for MjY2, AzFRS, AzF are were 10 μM, 10 μM and 1 mM, respectively. The anticodon in MjY2 was changed to CCU in order to reassign AGG codon to AzF.
as §1, with “The obtained fragments were cloned into the pLTE or pOPINE-based plasmids following the standard Gibson assembly cloning procedure (NEB). The correct plasmids with desired mutations were purified by Midiprep Kit (Qiagen) to ensure good quality for cell free protein translation.” left out
The cell-free translation reactions for GFP production were performed following the standard protocol^60 with the optimized Mg^2+ at 10 mM concentration. […] GFP production was monitored on a fluorescence plate reader (Synergy) at 30° C. for 3-5 h at 485 nm excitation and 528 nm emission wavelengths. […]

[2] = test system: amber codon in A_151X template; assay: Amber suppression by flexizyme-precharged nnAA-tRNA, A_151X template; format: biochemical, E. coli; conditions: five nnAAs; precharged tRNA 10, 20 or 30 uM
Excerpt: FIG. 29. The incorporation efficiency of 5 nnAAs precharged by flexizyme with their respective active group. A: The structure of five activated acid substrates for tRNA acylation by Flexizyme, including L-Propargylglycine 4-chlorobenzyl thioester (Pra-CBT), L-Azidolysine 4-chlorobenzyl thioester (Lys(N3)-CBT), L-Azidohomoalanine 4-chlorobenzyl thioester (Aha-CBT), NE-biotinyl-L-lysine 3,5-dinitrobenzyl ester (Lys(biotin)-DBN) and L-Azidophenylalanine-cyanomethyl ester (AzF-CME). The nnAAs are shown in black while their respective active groups in red. B: The amber suppression efficiency of 5 nnAAs precharged tRNA tested by using A_151X template in the cell free translation system. The precharged tRNA was used to prime the translational reactions at 10, 20 or 30 uM of final tRNA concentration. The flexizyme reaction time and the final concentration of precharged nnAA-tRNAs were indicated.
C-terminal Cys were added into sequence of the affinity clamp protein (pdz-fibronectin Fusion Protein, PDB: 3CH8_A). The purified protein with C-terminal Cys was immobilized on Iodoacetyl Gel (UltraLink®) using manufacture's protocol. tRNA charging by flexizyme for amber suppression: The acylation reaction were performed as described before^62. 1 volume of 250 μM o-tRNA was mixed with the same volume of 50 μM Fx ([…]) and 3 volume of water. […]

GCU Ser isoacceptor = assay: Kissing loop binding to tRNA isoacceptor; set-up: species or system E. coli; conditions: read-out: affinity
Protocol: Kissing loop (KL) binds GCU Ser isoacceptor with high affinity (5-50 nM) through the formation of quasi-continuous double helix stabilized by the common stacking column between the planes of the nucleotide pairs (FIG. 16A). E. coli S30 lysate can be to a large extent depleted of total tRNA by the chromatography on ethanolamine sepharose. After the depletion lysate retains ˜60% of translational efficiency of its parental one if supplemented by commercially available total tRNA fraction (FIG. 16 B).

[3] = A_151X template, % of wild type eGFP fluorescence, PylTcua 20 μM, PylRS variant 20 μM, nnAA 1 mM

[N-]=[N+]=Nc1ccc(C[C@H](N)C(=O)O)cc1 [AzF, p-azidophenylalanine]
protein containing AzF (LC-MS/MS) ([1]; GFP151AzF sample, TAG codon): more than 80%
GFP protein modified with AzF (AGG codon in GFP ORFs): more than 80%
amber suppression efficiency among flexizyme-charged nnAAs [2]: best amber-codon incorporation efficiency; also recorded: highest translational activity

C#CCN[C@@H](CCCCN)C(=O)O [PrK, N-Propargyl-Lysine]
incorporation with TCORS ([1]; A_151X template): essentially failed to incorporate
UAG suppression efficiency with BCNRS [1, 3]: essentially failed to incorporate
UAG suppression efficiency with PylRSAF [1, 3]: 13%

Bicyclo [6.1.0] nonyne-Lysine [BCN]
UAG suppression efficiency with BCNRS [1, 3]: 3%
efficiency of UAG suppression by either of three PylRS mutants ([1]; A_151X template, BCNRS, TCORS, PylRSAF): very low

B1: KL: RNA aptamer binding the anticodon loop of tRNA(Ser)GCU; SEQ ID NO:7 (nucleic acid)
chain: GGTAGTGAGGTAGTTAGCAGATACCTCACTACCAACACACACACAACACACACACAACACACAAGCT
modifications: “kissing loop” coding sequence with linker
Kd (GCU Ser isoacceptor): 0.005 to 0.05 µM

B2: MjY4: MjY tRNA with six mutations described in a later report (nucleic acid)
DNA: CCGGCGGTAGTTCAGCAGGGCAGAACGGCGGACTCTAAATCCGCATGGCAGGGGTTCAAATCCCCTCCGCCGGACCA
modifications: RNA, all phosphodiester, T or U not given here
notes: MjY tRNA with six mutations described in a later report
efficiency of MjY2 relative to the listed tRNA in AzF incorporation ([1]; A_151X, 10 μM tRNA, 10 μM AzFRS, 1 mM AzF): slightly better
